Data on 78 molecules can be found in patent US20240246941A1, “SUBSTITUTED 4-(3-AMINOPROP-1-YL)AMINOQUINOLINE ANALOGS AS MODULATORS OF MELANOMA-ASSOCIATED ANTIGEN 11 UBIQUITIN LIGASE” (ST. JUDE CHILDREN'S RESEARCH HOSPITAL, INC., priority 2020, published 2024).

The first experiment deals with interaction between GST-MAGEA11 MHD and FAM-PCF11_4 peptide (MAGE-A11:PCF11) (Homo sapiens (Human), UniProt P43364). Put plainly: TR-FRET dose response competition assay for disruption of MAGE-A11:PCF11 binding. The note with it: Dose response TR-FRET screening of nine scaffold groups against MAGE-A11:PCF11; read-out: consensus IC50. Summed up: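 Competition TR-FRET at room temperature in 50 mM Tris pH 7.5, 20 mM MgCl2, 0.1 mg/ml BSA, 1 mM DTT: final 5 nM GST-MAGEA11 MHD, 5 nM Tb-anti-GST, 200 nM FAM-PCF11_4, 90 min. Ratio 520/490 nm converted to % inhibition; IC50 from sigmoidal fit.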
interaction between GST-MAGEA11 MHD and FAM-PCF11_4 peptide (MAGE-A11:PCF11), sequence (P43364 218-429): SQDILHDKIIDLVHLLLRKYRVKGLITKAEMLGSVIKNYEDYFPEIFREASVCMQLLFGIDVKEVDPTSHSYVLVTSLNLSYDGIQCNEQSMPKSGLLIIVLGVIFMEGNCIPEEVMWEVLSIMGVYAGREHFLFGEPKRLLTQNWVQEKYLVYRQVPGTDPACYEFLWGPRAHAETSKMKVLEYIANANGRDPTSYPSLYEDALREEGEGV
With `COc1ccc(F)cc1CNCCCNc1ccnc2cc(C(F)(F)F)ccc12` [SJ000521052-1], the IC50 (in general, the concentration needed to halve the response being measured) worked out at 69.9 µM.

As for `FC(F)(F)c1ccc2c(NCCCNCc3ccc4[nH]ccc4c3)ccnc2c1` [SJ000521054-1], the IC50 was found to be 0.397 µM.

With `COc1ccc(F)c(CNCCCNc2ccnc3cc(C(F)(F)F)ccc23)c1` [SJ000521058-1], the IC50 stood at 69.9 µM.

As for `Fc1cccc(C(F)(F)F)c1CNCCCNc1ccnc2cc(C(F)(F)F)ccc12` [SJ000521059-1], the IC50 was determined as 69.9 µM.

`COc1ccc(OC(F)(F)F)cc1CNCCCNc1ccnc2cc(C(F)(F)F)ccc12` [SJ000521063-1]: the IC50 came out at 69.9 µM.

As to `COc1ccc(C(F)(F)F)cc1CNCCCNc1ccnc2cc(C(F)(F)F)ccc12` [SJ000521064-1], the IC50 turned out to be 69.1 µM.

Take `Fc1cccc(CNCCCNc2ccnc3cc(C(F)(F)F)ccc23)c1` [SJ000521066-1]: the IC50 is 69.9 µM.

Regarding `CCc1ccc(CNCCCNc2ccnc3cc(C(F)(F)F)ccc23)cc1` [SJ000521067-1], the concentration for half-maximal inhibition (IC50) amounted to 40.9 µM.

Take `CN(C)c1ccc(CNCCCNc2ccnc3cc(Cl)ccc23)c2ccccc12` [SJ000523054-1]: the IC50 was 69.9 µM.

As for `Nc1ccccc1CNCCCNc1ccnc2cc(Cl)ccc12` [SJ000523055-1], the IC50 was found to be 69.9 µM.

For the molecule `Clc1ccc2c(NCCCNCc3ccc4c(c3)OCO4)ccnc2c1` [SJ000523056-1], the IC50 is 69.9 µM.

Take `COc1ccc(CNCCCNc2ccnc3cc(Cl)ccc23)cc1` [SJ000523059-1]: the IC50 stood at 69.9 µM.

`Fc1ccccc1CNCCCNc1ccnc2cc(Cl)ccc12` [SJ000523060-1]: the IC50 was 69.9 µM.

With `Fc1cccc(CNCCCNc2ccnc3cc(Cl)ccc23)c1` [SJ000523061-1], the IC50 came out at 69.9 µM.

For the molecule `Fc1ccc(CNCCCNc2ccnc3cc(Cl)ccc23)cc1` [SJ000523062-1], the IC50 is 69.9 µM.

Take `N#Cc1cccc(CNCCCNc2ccnc3cc(Cl)ccc23)c1` [SJ000523063-1]: the IC50 was found to be 69.9 µM.

Consider `Clc1ccc2c(NCCCNCc3ccc(-c4ccccc4)cc3)ccnc2c1` [SJ000523064-1], for which the IC50 stood at 34.9 µM.

With `Clc1ccc2c(NCCCNCc3ccc4ccccc4c3)ccnc2c1` [SJ000523065-1], the IC50 worked out at 69.9 µM.

Consider `Cc1cccc(CNCCCNc2ccnc3cc(Cl)ccc23)c1` [SJ000523066-1], for which the IC50 turned out to be 69.9 µM.

Regarding `COC(=O)c1ccc(CNCCCNc2ccnc3cc(Cl)ccc23)cc1` [SJ000523067-1], the IC50 was 69.9 µM.

In the case of `CCCN1C(=O)c2ccccc2NC1c1ccc(Cl)cc1` (stereo not drawn) [SJ000550608-1], the IC50 stood at 69.9 µM.

As to `CCn1c2ccccc2c2cc(CNC3CCCCC3)ccc21` [SJ000550865-1], the half-inhibitory concentration (IC50) amounted to 69.9 µM.

With `CCn1c2ccccc2c2cc(CN3CCCC(O)C3)ccc21` (stereo not drawn) [SJ000550874-1], the IC50 is 69.9 µM.

With `O=C1c2ccccc2NC(c2ccc(Cl)cc2Cl)N1Cc1ccccc1` (stereo not drawn) [SJ000551164-1], the IC50 came to 69.9 µM.

Turning to `CCCN1C(=O)c2ccccc2NC1c1cc(OC)c(OC)c(OC)c1` (stereo not drawn) [SJ000551165-1], the IC50 turned out to be 69.9 µM.

Take `O=C1c2ccccc2NC(c2ccc(Cl)c(Cl)c2)N1Cc1ccccc1` (stereo not drawn) [SJ000551208-1]: the IC50 is 69.9 µM.

In the case of `COc1ccc(C2Nc3ccccc3C(=O)N2Cc2ccccc2)cc1` (stereo not drawn) [SJ000551209-1], the IC50 worked out at 69.9 µM.

Consider `CCOc1ccc(N(C(C)=O)C2=C(N)C(=O)c3ccccc3C2=O)cc1` [SJ000558312-2], for which the IC50 worked out at 65.7 µM.

In the case of `NC1=C(Nc2ccccc2)C(=O)c2ccccc2C1=O` [SJ000562543-1], the IC50 was 60.8 µM.

On to `Cc1ccccc1NC1=C(N)C(=O)c2ccccc2C1=O` [SJ000562551-1], for which the IC50 came out at 72.2 µM.

Turning to `Cc1ccc(NC2=C(N)C(=O)c3ccccc3C2=O)cc1` [SJ000562618-1], the IC50 was determined as 60.6 µM.

Turning to `CCCCCCCCOc1ccc(NC2=C(N)C(=O)c3ccccc3C2=O)cc1` [SJ000562629-1], the IC50 was 54.8 µM.

In the case of `NC1=C(Nc2ccc(Cl)cc2)C(=O)c2ccccc2C1=O` [SJ000562630-1], the IC50 was 53.8 µM.

With `Cc1cc(C)cc(NC2=C(N)C(=O)c3ccccc3C2=O)c1` [SJ000562641-1], the IC50 stood at 55 µM.

Regarding `COc1cc(NCc2ccc3nc(N)nc(N)c3c2C)cc(OC)c1OC` [SJ000574313-7], the IC50 came out at 9.46 µM.

For the molecule `O=C1c2ccccc2NC(c2ccc(F)cc2F)N1CCCN1CCOCC1` (stereo not drawn) [SJ000795275-1], the IC50 was 67.8 µM.

In the case of `O=C1c2ccccc2NC(c2ccc(F)c(F)c2)N1CCCN1CCOCC1` (stereo not drawn) [SJ000803757-1], the IC50 amounted to 58.4 µM.

As for `CCCOc1ccc(C2Nc3ccccc3C(=O)N2CCCN2CCOCC2)cc1` (stereo not drawn) [SJ000803758-1], the IC50 came to 72.1 µM.

With `CCOc1ccc(C2Nc3ccccc3C(=O)N2CCCN2CCOCC2)cc1` (stereo not drawn) [SJ000803759-1], the IC50 stood at 67.7 µM.

Regarding `COc1ccc(C2Nc3ccccc3C(=O)N2CCCN2CCOCC2)cc1OC(F)F` (stereo not drawn) [SJ000803760-1], the IC50 stood at 72.1 µM.

Consider `Cc1cc(C)c(C2Nc3ccccc3C(=O)N2CCCN2CCOCC2)cc1C` (stereo not drawn) [SJ000803761-1], for which the IC50 turned out to be 62.3 µM.

In the case of `CSc1ccc(C2Nc3ccccc3C(=O)N2CCCN2CCOCC2)cc1` (stereo not drawn) [SJ000803762-1], the IC50 was found to be 71.3 µM.

Staying with this experiment, now noted: Table 5, dose response TR-FRET screening of 59 quinoline compounds against MAGE-A11:PCF11; read-out: TR-FRET IC50.
In the case of `FC(F)(F)c1ccc2c(NCCCNCc3cc(Br)cs3)ccnc2c1` [SJ000521056-1], the IC50 is over 70 µM.

With `FC(F)(F)c1ccc2c(NCCCNCc3cc4ccccc4s3)ccnc2c1` [SJ000521060-1], the IC50 is over 70 µM.

`FC(F)(F)c1ccc2c(NCCCNCc3csc4ccccc34)ccnc2c1` [SJ000521061-1]: the IC50 was over 70 µM.

For `Fc1ccc(CN(CCCCNc2ccnc3cc(Cl)ccc23)Cc2ccccc2)cc1` [SJ000522725-1], the IC50 is over 70 µM.

Consider `CCCN(CCCNc1c2ccc(Cl)cc2nc2ccc(OC)cc12)Cc1ccc2[nH]ccc2c1` [SJ000522732-2], for which the IC50 was over 70 µM.

With `CCCN(CCCNc1ccnc2cc(Cl)ccc12)Cc1ccc2[nH]ccc2c1` [SJ000522746-2], the IC50 came to 2.8 µM.

Turning to `CCCN(CCCNc1ccnc2cc(Cl)ccc12)Cc1c(C)cc(C)cc1C` [SJ000522749-1], the IC50 is over 70 µM.

Consider `CCCN(CCCNc1ccnc2cc(Cl)ccc12)Cc1ccc(CC)cc1` [SJ000523001-1], for which the IC50 is over 70 µM.

Take `CCCN(CCCNc1ccnc2cc(Cl)ccc12)Cc1cc(C(F)(F)F)ccc1OC` [SJ000523012-1]: the IC50 was over 70 µM.

For `CCCN(CCCNc1c2ccc(Cl)cc2nc2ccc(OC)cc12)Cc1c(Cl)ccc(Cl)c1Cl` [SJ000523021-1], the IC50 is over 70 µM.

Consider `CCCN(CCCNc1ccnc2cc(Cl)ccc12)Cc1ccc(-c2ccccc2)cc1` [SJ000523039-1], for which the IC50 is over 70 µM.

Regarding `CCCN(CCCNc1ccnc2cc(Cl)ccc12)Cc1ccc2ccccc2c1` [SJ000523040-1], the IC50 is over 70 µM.

As for `Clc1cccc(-c2ccc(CNCCCNc3ccnc4cc(Cl)ccc34)o2)c1` [SJ000523069-1], the IC50 was over 70 µM.

As for `CCCN(CCCNc1ccnc2cc(C(F)(F)F)ccc12)Cc1ccccc1OC` [SJ000523072-1], the IC50 is over 70 µM.

With `CCCCCCN(CCC)CCCNc1ccnc2cc(C(F)(F)F)ccc12` [SJ000523083-1], the IC50 is over 70 µM.

With `CCCN(CCCNc1ccnc2cc(C(F)(F)F)ccc12)Cc1ccc2[nH]ccc2c1` [SJ000575171-1], the IC50 worked out at 33.2 µM.

Take `Clc1ccc2c(NCCCNCc3ccc[nH]3)ccnc2c1` [SJ000575192-1]: the IC50 was found to be 22.8 µM.

Still in this experiment, the particulars now being: Table 8, representative compounds; read-out: TR-FRET IC50.
In the case of `COc1cccc(F)c1CNCCCNc1ccnc2cc(C(F)(F)F)ccc12` [SJ000521051], the IC50 amounted to 69.9 µM.

`COc1ccc(F)cc1CNCCCNc1ccnc2cc(C(F)(F)F)ccc12` [SJ000521052]: the IC50 was found to be 69.9 µM.

`COc1ccc(F)c(CNCCCNc2ccnc3cc(C(F)(F)F)ccc23)c1` [SJ000521058]: the IC50 came to 69.9 µM.

Take `Fc1cccc(C(F)(F)F)c1CNCCCNc1ccnc2cc(C(F)(F)F)ccc12` [SJ000521059]: the IC50 stood at 69.9 µM.

Take `COc1ccc(OC(F)(F)F)cc1CNCCCNc1ccnc2cc(C(F)(F)F)ccc12` [SJ000521063]: the IC50 amounted to 69.9 µM.

As to `COc1ccc(C(F)(F)F)cc1CNCCCNc1ccnc2cc(C(F)(F)F)ccc12` [SJ000521064], the IC50 was determined as 69.1 µM.

Take `Fc1cccc(CNCCCNc2ccnc3cc(C(F)(F)F)ccc23)c1` [SJ000521066]: the IC50 turned out to be 69.9 µM.

For the molecule `CCc1ccc(CNCCCNc2ccnc3cc(C(F)(F)F)ccc23)cc1` [SJ000521067], the IC50 amounted to 40.9 µM.

For the molecule `Nc1ccccc1CNCCCNc1ccnc2cc(Cl)ccc12` [SJ000523055], the IC50 worked out at 69.9 µM.

With `Clc1ccc2c(NCCCNCc3ccc4c(c3)OCO4)ccnc2c1` [SJ000523056], the IC50 is 69.9 µM.

For the molecule `COc1ccc(CNCCCNc2ccnc3cc(Cl)ccc23)cc1` [SJ000523059], the IC50 was found to be 69.9 µM.

For the molecule `Fc1ccccc1CNCCCNc1ccnc2cc(Cl)ccc12` [SJ000523060], the IC50 amounted to 69.9 µM.

As to `Fc1cccc(CNCCCNc2ccnc3cc(Cl)ccc23)c1` [SJ000523061], the 50% inhibitory concentration (IC50) is 69.9 µM.

Turning to `Fc1ccc(CNCCCNc2ccnc3cc(Cl)ccc23)cc1` [SJ000523062], the IC50 was determined as 69.9 µM.

`N#Cc1cccc(CNCCCNc2ccnc3cc(Cl)ccc23)c1` [SJ000523063]: the IC50 came to 69.9 µM.

Regarding `Clc1ccc2c(NCCCNCc3ccc(-c4ccccc4)cc3)ccnc2c1` [SJ000523064], the IC50 was found to be 34.9 µM.

With `Clc1ccc2c(NCCCNCc3ccc4ccccc4c3)ccnc2c1` [SJ000523065], the IC50 was found to be 69.9 µM.

Consider `Cc1cccc(CNCCCNc2ccnc3cc(Cl)ccc23)c1` [SJ000523066], for which the IC50 came out at 69.9 µM.

As to `COC(=O)c1ccc(CNCCCNc2ccnc3cc(Cl)ccc23)cc1` [SJ000523067], the IC50 was found to be 69.9 µM.
